In patent publication US6140368A, “Naphthols useful in antiviral methods” (The Regents of the University of California, priority 1998, dated 2000):

Each compound was assayed against HIV reverse transcriptase (Human immunodeficiency virus type 1 group M subtype B, UniProt P03366) (assay: Reverse transcriptase scintillation proximity assay (Example 4, Table 2)). Settings: 10 μM inhibitor; relative to dimethyl sulfoxide = 100%; 3 min.
Assay type: biochemical
Description: Reverse transcriptase ("RT") activity is measured using a scintillation proximity assay kit available from Amersham Life Sciences, Inc., which uses a biotin/streptavidin bead capture system. RNA-dependent polymerase activity is measured using purified […] and a synthetic 17mer/50mer RNA-DNA template-primer containing biotin at the 5' end of the DNA. The template-primer, buffer, dNTP, and inhibitor are incubated for 10 minutes at 37° C. before the RT is added. The final 100 μl reaction mixture contains: 39 nm of template primer, buffer (40 mM tris HCl at pH 8.0, 10 mM MgCl2, 60 mM KCl, 10 mM dithiothreitol); 75 nM of each dNTP except dTTP; 25 nM dTTP and 35 nM tritium labeled d*TTP; 10 μM inhibitor; and 1.0-2.0 μg of RT. After three minute incubation, the reaction is quenched with 40 μl of 0.56M EDTA. Then 10 μl of streptavidin SPA beads (in suspension) are added and incubated at 37° C. for 10 minutes. Finally, 850 μl of a buffer containing 10 mM Tris HCl pH 7.4 and 0.15M NaCl is added. The signal is produced by biotinylated polymers incorporating d*TTP binding to the streptavidin beads which stimulate the scintillant. The amount of d*TTP incorporated in the polymer is measured with a scintillation counter.
Compounds showing good inhibition will give a low number of counts/min (cpm). This number is related to a standard, dimethyl sulfoxide, which is given an arbitrary 100% relative activity. All cpm data in a single run are given a percent of this standard.

For `O=C(Nc1ccc2c(O)c(N=Nc3ccc([As](=O)(O)O)cc3)c(S(=O)(=O)O)cc2c1)Nc1ccc2c(O)c(N=Nc3ccc([As](=O)(O)O)cc3)c(S(=O)(=O)O)cc2c1` [Compound 48], the “% RT activity remaining at 10 μM” value was 17%.

Same assay, conditions: 10 μM inhibitor; relative to dimethyl sulfoxide = 100%; 3 min, 10 µM

`CCOC(=O)c1ccc(NC(=O)Nc2ccc3c(O)cc(S(=O)(=O)O)cc3c2)cc1` [Compound 28] was tested, and the “% RT activity remaining at 10 μM” value was 100%.

For `O=C(O)c1ccc(N=Nc2c(S(=O)(=O)O)cc3cc(NC(=O)c4cccc(C(=O)Nc5ccc6c(O)c(N=Nc7ccc(C(=O)O)cc7)c(S(=O)(=O)O)cc6c5)n4)ccc3c2O)cc1` [Compound 127], the “% RT activity remaining at 10 μM” value was “.14%”.

Same assay, conditions: 0.05 h, 10 μM inhibitor; relative to dimethyl sulfoxide = 100%; read-out: % RT activity remaining at 10 μM

First: O=C(Nc1ccc2c(O)cccc2c1)Nc1ccc2c(O)cc(S(=O)(=O)O)cc2c1 [Compound 6]
Second: O=C(Nc1ccc2ccccc2c1)Nc1ccc2c(O)cc(S(=O)(=O)O)cc2c1 [Compound 13]
The remaining activity at 10 µM of the first is higher: 84% for the first, 82% for the second.

Compared with `O=C(Nc1ccc2ccc(S(=O)(=O)O)cc2c1)Nc1ccc2c(O)cc(S(=O)(=O)O)cc2c1` [Compound 7], `O=C(Nc1ccc2c(O)cc(S(=O)(=O)O)cc2c1)Nc1ccc2cc(S(=O)(=O)O)cc(O)c2c1` [Compound 9] is lower in remaining activity at 10 µM: 78% for the first, 75% for the second.

Going from `O=C(Nc1ccc2c(O)cc(S(=O)(=O)O)cc2c1)Nc1ccc2cc(S(=O)(=O)O)cc(S(=O)(=O)O)c2c1` [Compound 8] to `O=C(Nc1ccc2cc(S(=O)(=O)O)cc(S(=O)(=O)O)c2c1)Nc1ccc2cc(S(=O)(=O)O)cc(S(=O)(=O)O)c2c1` [Compound 78], the remaining activity at 10 µM falls from 83% to 80%.

First: O=C(Nc1ccc2c(O)cc(S(=O)(=O)O)cc2c1)Nc1cccc2ccc(S(=O)(=O)O)cc12 [Compound 10]
Second: O=C(Nc1ccc2c(O)cc(S(=O)(=O)O)cc2c1)Nc1cccc2ccccc12 [Compound 11]
The remaining activity at 10 µM of the first is lower: 88% for the first, 90% for the second.

Going from `CC(NC(=O)Nc1ccc2c(O)cc(S(=O)(=O)O)cc2c1)c1ccc(F)cc1` (centres unmarked) [Compound 12] to `CCOC(=O)c1ccc(NC(=O)Nc2ccc3c(O)cc(S(=O)(=O)O)cc3c2)cc1` [Compound 25], the remaining activity at 10 µM falls from 88% to 86%.

Compared with `O=C(Nc1cnc2ccccc2c1)Nc1ccc2c(O)cc(S(=O)(=O)O)cc2c1` [Compound 14], `O=C(Nc1ccc2c(O)cc(S(=O)(=O)O)cc2c1)c1ccccc1` [Compound 21] is higher in remaining activity at 10 µM: 90% for the first, 108% for the second.

First: O=C(Nc1ccc2c(c1)C(=O)c1ccccc1C2=O)Nc1ccc2c(O)cc(S(=O)(=O)O)cc2c1 [Compound 15]
Second: O=C(Nc1ccc2c(O)cc(S(=O)(=O)O)cc2c1)Nc1cccc2c1C(=O)c1ccccc1C2=O [Compound 20]
The remaining activity at 10 µM of the first is higher: 88% for the first, 86% for the second.

First: O=C(Nc1ccc2c(O)cc(S(=O)(=O)O)cc2c1)Nc1cccc2c(=O)[nH][nH]c(=O)c12 [Compound 16]
Second: Nc1cccc2c(NC(=O)Nc3ccc4c(O)cc(S(=O)(=O)O)cc4c3)cccc12 [Compound 19]
The remaining activity at 10 µM of the first is higher: 81% for the first, 80% for the second.

Going from `COC(=O)C(Cc1c[nH]c2ccccc12)NC(=O)Nc1ccc2c(O)cc(S(=O)(=O)O)cc2c1` (centres unmarked) [Compound 17] to `COC(=O)c1ccccc1NC(=O)Nc1ccc2c(O)cc(S(=O)(=O)O)cc2c1` [Compound 29], the remaining activity at 10 µM rises from 82% to 108%.

First: CC(=O)Nc1ccc2c(OC(C)=O)cc(S(=O)(=O)O)cc2c1 [Compound 22]
Second: COC(=O)c1ccccc1NC(=O)Nc1ccc2cc(S(=O)(=O)O)cc(O)c2c1 [Compound 24]
The remaining activity at 10 µM of the first is higher: 100% for the first, 90% for the second.

Going from `O=C1c2ccccc2C(=O)N1c1ccc2c(O)cc(S(=O)(=O)O)cc2c1` [Compound 23] to `CCOC(=O)c1cccc(NC(=O)Nc2ccc3cc(S(=O)(=O)O)cc(O)c3c2)c1` [Compound 75], the remaining activity at 10 µM falls from 100% to 85%.

Compared with `COC(=O)c1cc(NC(=O)Nc2ccc3c(S(=O)(=O)O)cc(S(=O)(=O)O)cc3c2)cc(C(=O)OC)c1` [Compound 26], `COC(=O)c1cc(NC(=O)Nc2ccc3cc(S(=O)(=O)O)cc(O)c3c2)cc(C(=O)OC)c1` [Compound 27] is lower in remaining activity at 10 µM: 88% for the first, 80% for the second.

First: CCOC(=O)c1ccc(N=Nc2c(S(=O)(=O)O)cc3cc(NC(=O)Nc4ccc5c(O)c(N=Nc6ccc(C(=O)OCC)cc6)c(S(=O)(=O)O)cc5c4)ccc3c2O)cc1 [Compound 44]
Second: CCOC(=O)c1ccc(N=Nc2c(S(=O)(=O)O)cc3ccc(NC(=O)Nc4ccc5cc(S(=O)(=O)O)c(N=Nc6ccc(C(=O)OCC)cc6)c(O)c5c4)cc3c2O)cc1 [Compound 84]
The remaining activity at 10 µM of the first is higher: 19% for the first, 1.7% for the second.

`O=C(Nc1ccc2cc(S(=O)(=O)O)cc(O)c2c1)Nc1ccc2cc(S(=O)(=O)O)cc(O)c2c1` [Compound 77] and `O=C(Nc1ccc2ccc(S(=O)(=O)O)cc2c1)Nc1ccc2ccc(S(=O)(=O)O)cc2c1` [Compound 80] are the same in remaining activity at 10 µM: 84% for the first, 84% for the second.

`O=C(Nc1ccc(S(=O)(=O)O)c2ccccc12)Nc1ccc(S(=O)(=O)O)c2ccccc12` [Compound 79] and `O=C(Nc1ccc2c(S(=O)(=O)O)cccc2c1)Nc1ccc2c(S(=O)(=O)O)cccc2c1` [Compound 81] are the same in remaining activity at 10 µM: 78% for the first, 78% for the second.

Compared with `O=C(Nc1ccc2cc(S(=O)(=O)O)ccc2c1)Nc1ccc2cc(S(=O)(=O)O)ccc2c1` [Compound 82], `O=C(Nc1ccc2c(O)cc(S(=O)(=O)O)cc2c1)c1cc(=O)cc(C(=O)Nc2ccc3c(O)cc(S(=O)(=O)O)cc3c2)o1` [Compound 131] is lower in remaining activity at 10 µM: 92% for the first, 48% for the second.

First: COC(=O)c1cc(NC(=O)Nc2ccc3c4c(cccc24)C(=O)OC3=O)cc(C(=O)OC)c1 [Compound 83]
Second: Cc1cc(C(=O)O)ccc1N=Nc1c(S(=O)(=O)O)cc2cc(NC(=O)c3cccc(C(=O)Nc4ccc5c(O)c(N=Nc6ccc(C(=O)O)cc6C)c(S(=O)(=O)O)cc5c4)n3)ccc2c1O [Compound 130]
The remaining activity at 10 µM of the first is higher: 77% for the first, 0.35% for the second.

Going from `O=C(O)c1ccc(N=Nc2c(S(=O)(=O)O)cc3cc(NC(=O)c4cccc(C(=O)Nc5ccc6c(O)c(N=Nc7ccc(C(=O)O)cc7)c(S(=O)(=O)O)cc6c5)n4)ccc3c2O)cc1` [Compound 118] to `O=C(O)Cc1ccc(N=Nc2c(S(=O)(=O)O)cc3cc(NC(=O)c4cccc(C(=O)Nc5ccc6c(O)c(N=Nc7ccc(CC(=O)O)cc7)c(S(=O)(=O)O)cc6c5)n4)ccc3c2O)cc1` [Compound 119], the remaining activity at 10 µM rises from 0.25% to 0.29%.

Going from `O=C(O)CCc1ccc(N=Nc2c(S(=O)(=O)O)cc3cc(NC(=O)c4cccc(C(=O)Nc5ccc6c(O)c(N=Nc7ccc(CCC(=O)O)cc7)c(S(=O)(=O)O)cc6c5)n4)ccc3c2O)cc1` [Compound 120] to `O=C(O)CCCCCc1ccc(N=Nc2c(S(=O)(=O)O)cc3cc(NC(=O)c4cccc(C(=O)Nc5ccc6c(O)c(N=Nc7ccc(CCCCCC(=O)O)cc7)c(S(=O)(=O)O)cc6c5)n4)ccc3c2O)cc1` [Compound 121], the remaining activity at 10 µM falls from 0.21% to 0.16%.

Going from `O=C(O)/C=C/c1ccc(N=Nc2c(S(=O)(=O)O)cc3cc(NC(=O)c4cccc(C(=O)Nc5ccc6c(O)c(N=Nc7ccc(/C=C/C(=O)O)cc7)c(S(=O)(=O)O)cc6c5)n4)ccc3c2O)cc1` [Compound 123] to `O=C(O)CC(C(=O)O)c1ccc(N=Nc2c(S(=O)(=O)O)cc3cc(NC(=O)c4cccc(C(=O)Nc5ccc6c(O)c(N=Nc7ccc(C(CC(=O)O)C(=O)O)cc7)c(S(=O)(=O)O)cc6c5)n4)ccc3c2O)cc1` (centres unmarked) [Compound 124], the remaining activity at 10 µM rises from 0.2% to 1.2%.

Compared with `O=C(Nc1ccc2c(O)c(N=Nc3cc(F)c(F)c(C(=O)O)c3F)c(S(=O)(=O)O)cc2c1)c1cccc(C(=O)Nc2ccc3c(O)c(N=Nc4cc(F)c(F)c(C(=O)O)c4F)c(S(=O)(=O)O)cc3c2)n1` [Compound 126], `COc1cc(N=Nc2c(S(=O)(=O)O)cc3cc(NC(=O)c4cccc(C(=O)Nc5ccc6c(O)c(N=Nc7cc(OC)c(OC)c(OC)c7C(=O)O)c(S(=O)(=O)O)cc6c5)n4)ccc3c2O)c(C(=O)O)c(OC)c1OC` [Compound 128] is higher in remaining activity at 10 µM: 0.16% for the first, 5% for the second.

First: O=C(O)c1ccc(N=Nc2c(S(=O)(=O)O)cc3cc(NC(=O)c4cc(=O)cc(C(=O)Nc5ccc6c(O)c(N=Nc7ccc(C(=O)O)cc7)c(S(=O)(=O)O)cc6c5)o4)ccc3c2O)cc1 [Compound 132]
Second: O=C(O)Cc1ccc(N=Nc2c(S(=O)(=O)O)cc3cc(NC(=O)c4cc(=O)cc(C(=O)Nc5ccc6c(O)c(N=Nc7ccc(CC(=O)O)cc7)c(S(=O)(=O)O)cc6c5)o4)ccc3c2O)cc1 [Compound 133]
The remaining activity at 10 µM of the first is lower: 0.19% for the first, 0.4% for the second.

With `O=C(O)CCc1ccc(N=Nc2c(S(=O)(=O)O)cc3cc(NC(=O)c4cc(=O)cc(C(=O)Nc5ccc6c(O)c(N=Nc7ccc(CCC(=O)O)cc7)c(S(=O)(=O)O)cc6c5)o4)ccc3c2O)cc1` [Compound 134] the remaining activity at 10 µM was 0.25%.

Same assay, conditions: 0.05 h, read-out: % RT activity remaining at 10 μM

In the case of `O=C(NC(=O)Oc1ccccc1)Nc1ccc2cc(S(=O)(=O)O)cc(O)c2c1` [Compound 30], the remaining activity at 10 µM is reported as 87%.

Same assay, conditions: read-out: IC50 (RT activity)

With `O=C(O)/C=C/c1ccc(N=Nc2c(S(=O)(=O)O)cc3ccc(NC(=O)Nc4ccc5cc(S(=O)(=O)O)c(N=Nc6ccc(/C=C/C(=O)O)cc6)c(O)c5c4)cc3c2O)cc1` [Compound 86] the IC50 was 1.2 µM.
